# Tested on: GNS166 cells
# Assay: Microarray whole-transcriptome gene expression analysis
# Format: cell-based, human
# Conditions: 5 µM SAHA vs DMSO
# Procedure: Whole-transcriptome analysis was performed from 300 ng of RNA using HuGene-2_0-st-v1 expression array (Affymetrix), which covers 48,226 transcripts. Raw data were first checked for quality purposes through the Affymetrix® Expression Console™ Software v1.4.1 and TAC software v4.0. Then, data were normalized using the Robust Multi-array Average (RMA) and analyzed by Limma tool. Probesets with FDR-corrected p-values smaller than 0.05 were selected. Functional enrichment on Gene Ontology (GO) biological processes was performed on a smaller subset of the differentially expressed genes (corrected p-value < 0.001) by means of Broad Institute GSEA. […] The data that support this study have been deposited in NCBI´s Gene Expression Omnibus and are accessible through GEO series accession number GSE143887.
smiles,measurement,setting,value
"O=C(CCCCCCC(=O)Nc1ccccc1)NO [SAHA, Suberoylanilide hydroxamic acid]",logFC C4orf32,transcript TC0400008424.hg.1,1.313
same,logFC USP53,transcript TC0400008557.hg.1,1.38
same,logFC SPRY1,transcript TC0400008628.hg.1,1.671
same,logFC PCDH10,transcript TC0400008725.hg.1,3.614
same,logFC LRAT,transcript TC0400009068.hg.1,2.43
same,logFC GUCY1B3,transcript TC0400009088.hg.1,2.131
same,logFC GRIA2,transcript TC0400009110.hg.1,2.789
same,logFC WDR17,transcript TC0400009376.hg.1,2.897
same,logFC TLR10,transcript TC0400010449.hg.1,2.282
same,logFC TEC,transcript TC0400010618.hg.1,1.822
same,logFC SPINK2,transcript TC0400010780.hg.1,1.664
same,logFC PAQR3,transcript TC0400011130.hg.1,1.64
same,logFC HPSE,transcript TC0400011203.hg.1,1.993
same,logFC ABCG2,transcript TC0400011279.hg.1,2.81
same,logFC NDNF,transcript TC0400011732.hg.1,1.962
same,logFC CBR4,transcript TC0400012375.hg.1,2.0355
same,logFC CCDC110,transcript TC0400012640.hg.1,2.964
same,logFC STIM2,transcript TC0400012781.hg.1,2.698
same,logFC STIM2,transcript TC0400012782.hg.1,1.4133
same,logFC TMEM144,transcript TC0400012854.hg.1,1.56
same,logFC MFAP3L,transcript TC0400012992.hg.1,1.287
same,logFC ROPN1L,transcript TC0500006744.hg.1,1.559
same,logFC CDH6,transcript TC0500007044.hg.1,1.462
same,logFC HEXB,transcript TC0500007792.hg.1,1.236
same,logFC ADGRV1,transcript TC0500008055.hg.1,1.802
same,logFC C5orf30,transcript TC0500008233.hg.1,1.583
same,logFC ACTBL2,transcript TC0500010822.hg.1,3.506
same,logFC SGTB,transcript TC0500010932.hg.1,1.8638
same,logFC MEF2C,transcript TC0500011418.hg.1,3.2962
same,logFC PCSK1,transcript TC0500011513.hg.1,2.7195
same,logFC ST8SIA4,transcript TC0500011579.hg.1,2.463
same,logFC NREP,transcript TC0500011705.hg.1,1.704
same,logFC SEMA6A,transcript TC0500011775.hg.1,1.39
same,logFC MARCH3,transcript TC0500011935.hg.1,1.4429
same,logFC BASP1,transcript TC0500013155.hg.1,2.0101
same,logFC BMP6,transcript TC0600006873.hg.1,2.494
same,logFC CD83,transcript TC0600007012.hg.1,1.54
same,logFC SLC25A27,transcript TC0600008166.hg.1,2.967
same,logFC TMEM14A,transcript TC0600008262.hg.1,1.194
same,logFC OGFRL1,transcript TC0600008486.hg.1,1.1708
same,logFC TPD52L1,transcript TC0600009353.hg.1,1.7761
same,logFC KIAA0319,transcript TC0600011065.hg.1,1.327
same,logFC GSTA4,transcript TC0600012059.hg.1,1.152
same,logFC ELOVL4,transcript TC0600012379.hg.1,1.597
same,logFC GPR63,transcript TC0600012625.hg.1,1.5628
same,logFC CTGF,transcript TC0600013186.hg.1,1.2152
same,logFC SGK1,transcript TC0600013231.hg.1,2.01
same,logFC CITED2,transcript TC0600013361.hg.1,1.453
same,logFC MICA,transcript TC0600014101.hg.1,1.308
same,logFC TBC1D7,transcript TC0600014241.hg.1,1.745
same,logFC GCLC,transcript TC0600014300.hg.1,1.594
same,logFC SCIN,transcript TC0700006735.hg.1,1.966
same,logFC TSPAN13,transcript TC0700006783.hg.1,2.267
same,logFC RUNDC3B,transcript TC0700008261.hg.1,2.108
same,logFC PEG10,transcript TC0700008367.hg.1,1.87
same,logFC SDHAF3,transcript TC0700008430.hg.1,2.085
same,logFC CPED1,transcript TC0700008928.hg.1,1.813
same,logFC FKBP14,transcript TC0700010621.hg.1,1.44
same,logFC IGFBP3,transcript TC0700010965.hg.1,3.673
same,logFC PCLO,transcript TC0700011655.hg.1,1.736
same,logFC TFPI2,transcript TC0700011809.hg.1,1.387
same,logFC DOCK4,transcript TC0700012276.hg.1,2.262
same,logFC KCNH2,transcript TC0700013050.hg.1,1.762
same,logFC DOCK5,transcript TC0800007057.hg.1,2.096
same,logFC CHCHD7,transcript TC0800007697.hg.1,1.373
same,logFC GDAP1,transcript TC0800007985.hg.1,1.791
same,logFC STMN2,transcript TC0800008044.hg.1,3.942
same,logFC CA3,transcript TC0800008124.hg.1,3.677
same,logFC CA2,transcript TC0800008126.hg.1,1.801
same,logFC STC1,transcript TC0800009891.hg.1,3.859
same,logFC TEX15,transcript TC0800010045.hg.1,3.073
same,logFC ZMAT4,transcript TC0800010224.hg.1,2.513
same,logFC ENPP2,transcript TC0800011620.hg.1,1.943
same,logFC FBXO16,transcript TC0800012396.hg.1,1.919
same,logFC SLC1A1,transcript TC0900006522.hg.1,1.427
same,logFC CD274,transcript TC0900006559.hg.1,1.67
same,logFC ZNF483,transcript TC0900008425.hg.1,1.1693
same,logFC OLFM1,transcript TC0900009145.hg.1,2.218
same,logFC MLLT3,transcript TC0900009673.hg.1,1.64
same,logFC NMRK1,transcript TC0900010445.hg.1,1.539
same,logFC DIRAS2,transcript TC0900010737.hg.1,1.619
same,logFC CTSV,transcript TC0900010933.hg.1,2.165
same,logFC MEGF9,transcript TC0900011379.hg.1,1.37
same,logFC PHYHIPL,transcript TC1000007714.hg.1,2.12
same,logFC SFR1,transcript TC1000008798.hg.1,1.8477
same,logFC VIM-AS1,transcript TC1000009920.hg.1,1.211
same,logFC DNAJC12,transcript TC1000010827.hg.1,2.378
same,logFC CPEB3,transcript TC1000011420.hg.1,1.535
same,logFC MPP7,transcript TC1000012536.hg.1,1.855

# From publication PMC7265429, “Characterization of a new small-molecule inhibitor of HDAC6 in glioblastoma” (Cell Death & Disease, 2020)
